# Patent publication US11707440B2 (priority 2017, dated 2023)
# Assays:
# [1] = test system: subjects with MDD at imminent risk for suicide; experiment: SIBAT clinical global judgment of suicide risk, […]2001; format: in vivo, human; conditions: Baseline(DB), predose Day 1; ITT analysis set
# Text: The clinical global judgment of suicide risk (Module 8) summarizes clinician overall judgment of suicide risk as derived from information gathered from the full SIBAT tool. It operates like numerous other CGI-severity scales that have been used in other psychiatric studies. Change in the clinical global judgment of suicide risk is designed to directly identify clinical meaningful changes in suicidal ideation and to permit classification of suicide risk.
# The analysis of the change in SIBAT score was based on an ANCOVA model on ranks of change in SIBAT with treatment, antidepressant therapy, and analysis center as factors, and baseline value (unranked) as a covariate. There was a significant difference (two-sided […]) between the two treatment groups when comparing the mean rank of change from baseline at Day 1: 4-hours postdose in favor of esketamine 84 mg See, Table 58. See, FIG. 39. […] This difference was not evident at the Day 25 DB endpoint. See, FIG. 40, which is based on LOCF data and analyzed using Cochran-Mantel-Haenszel test controlling for analysis center and antidepressant therapy.
# [2] = test system: subjects with MDD at imminent risk for suicide; format: in vivo, human; conditions: esketamine 84 mg
# Description: Transient blood pressure increases peaked for the esketamine group at approximately 40 minutes post dose with the maximum mean increases (across all dosing days) in systolic BP being 8.7 in the placebo group and 16.7 in the esketamine 84 mg group. The maximum mean increases (across all dosing days) in diastolic BP were 7.6 in the placebo group and 11.9 in the esketamine 84 mg group. […] See, FIGS. 46 and 47.
# [3] = test system: patients with treatment-resistant depression (TRD); experiment: CGI-S, Example 7; format: in vivo, human
# Description: Overall illness severity was assessed on the Clinical Global Impression of Severity (CGI-S) scale (Guy, “ECDEU Assessment Manual for Psychopharmacology-Revised (DHEW Publ No ADM 76-338)”, Rockville, Md.: U.S. Department of Health, Education, and Welfare, Public Health Service, Alcohol, Drug Abuse, and Mental Health Administration, NIMH Psychopharmacology Research Branch, Division of Extramural Research Programs; 1976, pp 218-222). Participants assessed their severity of anxiety on the Generalized Anxiety Disorder 7-item (GADS-7) Scale (See, Tables 157 and 15). See, Spitzer, “A brief measure for assessing generalized anxiety disorder—the GAD-7”, Arch. Intern. Med., 2006, 166(10):1092-1097.
# [4] = test system: patients with treatment-resistant depression (TRD); experiment: Blood pressure and heart rate, Example 7; format: in vivo, human
# Description: Adverse events were monitored throughout the study. Other safety assessments (i.e., laboratory tests, vital signs, physical examination) were performed at pre-specified time points. Vital signs, the Clinician Administered Dissociative States Scale (CADSS; Bremner, “Measurement of dissociative states with the clinician-administered dissociative states scale (CADSS)”, J. Traumatic Stress, 1998, 11(1):125-136), and the 4-item positive symptom subscale from the Brief Psychiatric Rating Scale (BPRS; Overall, “The Brief Psychiatric Rating Scale. Psychological Reports”, 1962, 10:799-812) were assessed pre-dose, at 40 minutes, and 2 hours post-dose.
# [5] = Pharmacokinetics of esketamine nasal spray, 14 Phase 1 studies (Example 10); conditions: human, plasma, inhaled or intranasal
# Description: The data herein was assembled from 14 Phase 1 studies; each Phase 1 study was performed similarly to the study outlined in Example 9 in which the PK of esketamine was assessed.
# [6] = test system: elderly subjects with TRD; conditions: US patients aged ≥65 years
# [7] = in most cases at 10 or 40 minutes post-dose
smiles,measurement,setting,value
CN[C@]1(c2ccccc2Cl)CCCCC1=O [Esketamine 84 mg],"SIBAT Clinical Global Judgment of Suicide Risk, Median (Range)",[1],6.0 (5; 6)
"CN[C@]1(c2ccccc2Cl)CCCCC1=O [esketamine, (S)-2-(2-chlorophenyl)-2-(methylamino)cyclohexanone]",Maximum mean increase in diastolic BP (across all dosing days),[2],11.9
same,Maximum mean increase in systolic BP (across all dosing days),[2],16.7
same,Time of return of blood pressure to normal range,[2],≤ 2 hours post dose
same,CGI-S Median Change,"[3]; 28 mg, Period 1, first day to day 8",−1.0
same,CGI-S Median,"[3]; 28 mg, Period 1 end point",4.0
same,CGI-S Median Change,"[3]; 28 mg, Period 2, first day to day 8 of period",−1.0
same,CGI-S Median,"[3]; 28 mg, Period 2 end point",4.0
same,CGI-S Median Change,"[3]; 56 mg, Period 1, first day to day 8",−1.0
same,CGI-S Median,"[3]; 56 mg, Period 1 end point",4.0
same,CGI-S Median Change,"[3]; 56 mg, Period 2, first day to day 8 of period",−1.0
same,CGI-S Median,"[3]; 56 mg, Period 2 endpoint",5.0
same,CGI-S Median Change,"[3]; 84 mg, Period 1, first day to day 8",−0.5
same,CGI-S Median,"[3]; 84 mg, Period 1 end point",4.0
same,CGI-S Median Change,"[3]; 84 mg, Period 2, first day to day 8 of period",−1.0
same,CGI-S Median,"[3]; 84 mg, Period 2 endpoint",4.0
same,"Diastolic blood pressure, maximum mean change",[4]; dosing days,10.3 mmHg
same,"Heart rate, maximum mean change",[4]; dosing days,9.4 bpm
same,"Systolic blood pressure, maximum mean change",[4]; dosing days,19.0 mmHg
same,Time of return of elevated blood pressure to the normal range,"[4]; human, in vivo, other: intranasal",≤ 2 hours post-dose
same,Maximum diastolic blood pressure value,[4]; [7],115 mmHg
same,Maximum systolic blood pressure value,[4]; [7],199 mmHg
same,AUC,[5]; 28 mg,128 to 183 ng·h/mL
same,AUC,[5]; 56 mg,216 to 317 ng·h/mL
same,AUC,[5]; 84 mg,310 to 489 ng·h/mL
same,Patients who withdrew the nasal spray,[6],2 patients
